Source: PubChem BioAssay (NCI)
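Cultured in 96-well plates, cells were exposed to test compound for 48 hours across five concentrations. At the GI50, growth is halved. TGI: total growth inhibition.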

Legend:
Test in all cases: NCI tumour cell line growth inhibition, 48 h
MALME-3M melanoma = tested on: MALME-3M melanoma
HCT-116 colon = tested on: HCT-116 colon
HCT-15 colon = tested on: HCT-15 colon
SN12C renal = tested on: SN12C renal
HOP-92 NSCLC = tested on: HOP-92 NSCLC
DU-145 prostate = tested on: DU-145 prostate
786-0 renal = tested on: 786-0 renal
MCF7 breast = tested on: MCF7 breast
LOX IMVI melanoma = tested on: LOX IMVI melanoma
SR leukemia = tested on: SR leukemia
UO-31 renal = tested on: UO-31 renal
OVCAR-5 ovarian = tested on: OVCAR-5 ovarian
IGROV1 ovarian = tested on: IGROV1 ovarian
NCI-H522 lung = tested on: NCI-H522 lung
CAKI-1 renal = tested on: CAKI-1 renal
OVCAR-4 ovarian = tested on: OVCAR-4 ovarian
KM12 colon = tested on: KM12 colon
MDA-MB-231 breast = tested on: MDA-MB-231 breast
HCC-2998 colon = tested on: HCC-2998 colon
TK-10 renal = tested on: TK-10 renal
HL-60(TB) leukemia = tested on: HL-60(TB) leukemia
NCI-H226 lung = tested on: NCI-H226 lung
RXF 393 renal = tested on: RXF 393 renal
U251 CNS = tested on: U251 CNS
NCI/ADR-RES ovarian = tested on: NCI/ADR-RES ovarian
K-562 leukemia = tested on: K-562 leukemia
SF-539 CNS = tested on: SF-539 CNS
BT-549 breast = tested on: BT-549 breast
M14 melanoma = tested on: M14 melanoma
MDA-MB-435 = tested on: MDA-MB-435
COLO 205 colon = tested on: COLO 205 colon
SW-620 colon = tested on: SW-620 colon
HS 578T breast = tested on: HS 578T breast
OVCAR-3 ovarian = tested on: OVCAR-3 ovarian
SNB-75 CNS = tested on: SNB-75 CNS
PC-3 prostate = tested on: PC-3 prostate
ACHN renal = tested on: ACHN renal
RPMI-8226 leukemia = tested on: RPMI-8226 leukemia
SF-268 CNS = tested on: SF-268 CNS
CCRF-CEM leukemia = tested on: CCRF-CEM leukemia
SK-MEL-28 melanoma = tested on: SK-MEL-28 melanoma
A549 NSCLC = tested on: A549 NSCLC
T-47D breast = tested on: T-47D breast
EKVX NSCLC = tested on: EKVX NSCLC
UACC-62 melanoma = tested on: UACC-62 melanoma
SNB-19 CNS = tested on: SNB-19 CNS
MOLT-4 leukemia = tested on: MOLT-4 leukemia
HOP-62 NSCLC = tested on: HOP-62 NSCLC
NCI-H23 lung = tested on: NCI-H23 lung
SK-MEL-2 melanoma = tested on: SK-MEL-2 melanoma
NCI-H460 lung = tested on: NCI-H460 lung
OVCAR-8 ovarian = tested on: OVCAR-8 ovarian
UACC-257 melanoma = tested on: UACC-257 melanoma
SK-OV-3 ovarian = tested on: SK-OV-3 ovarian
HT29 colon = tested on: HT29 colon

With `CC1=C2C(=C[C@@](C)(C=O)[C@@H]2O)C(=O)[C@](C)(O)C12CC2` the GI50 (MALME-3M melanoma) was 1610 nM, the TGI (MALME-3M melanoma) was 3830 nM and the GI50 (HCT-116 colon) was 569 nM. For the same compound, the TGI (HCT-116 colon) was greater than 100000 nM, the GI50 (HCT-15 colon) was 842 nM and the TGI (HCT-15 colon) was 9100 nM. It also gave a GI50 (SN12C renal) of 2850 nM, a TGI (SN12C renal) of 51500 nM and a GI50 (HOP-92 NSCLC) of 2390 nM. For the same compound, the TGI (HOP-92 NSCLC) was 6680 nM, the GI50 (DU-145 prostate) was 340 nM and the TGI (DU-145 prostate) was 10100 nM. It also gave a GI50 (786-0 renal) of 2400 nM, a TGI (786-0 renal) of 10100 nM and a GI50 (MCF7 breast) of 381 nM. For the same compound, the TGI (MCF7 breast) was 10500 nM, the GI50 (LOX IMVI melanoma) was 1160 nM and the TGI (LOX IMVI melanoma) was 4430 nM. For the same compound, the GI50 (SR leukemia) was 2160 nM, the TGI (SR leukemia) was greater than 100000 nM and the GI50 (UO-31 renal) was 1700 nM. The TGI (UO-31 renal) was 9010 nM, the GI50 (OVCAR-5 ovarian) was 424 nM and the TGI (OVCAR-5 ovarian) was 4440 nM. It also gave a GI50 (IGROV1 ovarian) of 789 nM, a TGI (IGROV1 ovarian) of 5760 nM and a GI50 (NCI-H522 lung) of 1790 nM. The TGI (NCI-H522 lung) was 4940 nM, the GI50 (CAKI-1 renal) was 541 nM and the TGI (CAKI-1 renal) was 22000 nM. The GI50 (OVCAR-4 ovarian) was 2040 nM, the TGI (OVCAR-4 ovarian) was 7070 nM and the GI50 (KM12 colon) was 3090 nM. It also gave a TGI (KM12 colon) of 22200 nM, a GI50 (MDA-MB-231 breast) of 2490 nM and a TGI (MDA-MB-231 breast) of 7550 nM. It also gave a GI50 (HCC-2998 colon) of 1380 nM, a TGI (HCC-2998 colon) of 3480 nM and a GI50 (TK-10 renal) of 2700 nM. The TGI (TK-10 renal) was 8770 nM, the GI50 (HL-60(TB) leukemia) was 1470 nM and the TGI (HL-60(TB) leukemia) was 6970 nM. The GI50 (NCI-H226 lung) was 2070 nM, the TGI (NCI-H226 lung) was 5090 nM and the GI50 (RXF 393 renal) was 277 nM. The TGI (RXF 393 renal) was 799 nM, the GI50 (U251 CNS) was 1050 nM and the TGI (U251 CNS) was greater than 100000 nM. It also gave a GI50 (NCI/ADR-RES ovarian) of 1560 nM, a TGI (NCI/ADR-RES ovarian) of 5700 nM and a GI50 (K-562 leukemia) of 2910 nM. For the same compound, the TGI (K-562 leukemia) was greater than 100000 nM, the GI50 (SF-539 CNS) was 1480 nM and the TGI (SF-539 CNS) was 3330 nM. The GI50 (BT-549 breast) was 1590 nM, the TGI (BT-549 breast) was 4730 nM and the GI50 (M14 melanoma) was 1780 nM. For the same compound, the TGI (M14 melanoma) was 5110 nM, the GI50 (MDA-MB-435) was 2070 nM and the TGI (MDA-MB-435) was 4720 nM. For the same compound, the GI50 (COLO 205 colon) was 1120 nM, the TGI (COLO 205 colon) was 4680 nM and the GI50 (SW-620 colon) was 881 nM. It also gave a TGI (SW-620 colon) greater than 100000 nM, a GI50 (HS 578T breast) of 1990 nM and a TGI (HS 578T breast) of 5360 nM. The GI50 (OVCAR-3 ovarian) was 1350 nM, the TGI (OVCAR-3 ovarian) was 5770 nM and the GI50 (SNB-75 CNS) was 1580 nM. The TGI (SNB-75 CNS) was 3950 nM, the GI50 (PC-3 prostate) was 1550 nM and the TGI (PC-3 prostate) was 8260 nM. For the same compound, the GI50 (ACHN renal) was 1560 nM, the TGI (ACHN renal) was 8200 nM and the GI50 (RPMI-8226 leukemia) was 7280 nM. For the same compound, the TGI (RPMI-8226 leukemia) was 52200 nM, the GI50 (SF-268 CNS) was 2590 nM and the TGI (SF-268 CNS) was 10300 nM. For the same compound, the GI50 (CCRF-CEM leukemia) was 1740 nM, the TGI (CCRF-CEM leukemia) was greater than 100000 nM and the GI50 (SK-MEL-28 melanoma) was 1960 nM. The TGI (SK-MEL-28 melanoma) was 5030 nM, the GI50 (A549 NSCLC) was 476 nM and the TGI (A549 NSCLC) was 11900 nM. For the same compound, the GI50 (T-47D breast) was 2390 nM, the TGI (T-47D breast) was 8860 nM and the GI50 (EKVX NSCLC) was 2800 nM. It also gave a TGI (EKVX NSCLC) of 8860 nM, a GI50 (UACC-62 melanoma) of 1520 nM and a TGI (UACC-62 melanoma) of 3670 nM. It also gave a GI50 (SNB-19 CNS) of 2500 nM, a TGI (SNB-19 CNS) of 12500 nM and a GI50 (MOLT-4 leukemia) of 2180 nM. The TGI (MOLT-4 leukemia) was greater than 100000 nM, the GI50 (HOP-62 NSCLC) was 2530 nM and the TGI (HOP-62 NSCLC) was 14100 nM. For the same compound, the GI50 (NCI-H23 lung) was 666 nM, the TGI (NCI-H23 lung) was 2450 nM and the GI50 (SK-MEL-2 melanoma) was 2080 nM. For the same compound, the TGI (SK-MEL-2 melanoma) was 4580 nM, the GI50 (NCI-H460 lung) was 260 nM and the TGI (NCI-H460 lung) was 710 nM. It also gave a GI50 (OVCAR-8 ovarian) of 2390 nM, a TGI (OVCAR-8 ovarian) greater than 100000 nM and a GI50 (UACC-257 melanoma) of 3150 nM. For the same compound, the TGI (UACC-257 melanoma) was 15200 nM, the GI50 (SK-OV-3 ovarian) was 2660 nM and the TGI (SK-OV-3 ovarian) was 7790 nM. It also gave a GI50 (HT29 colon) of 1130 nM and a TGI (HT29 colon) of 88000 nM.
